# “Also recorded” adds a separate entry of the source.
# What was measured:
# [1] = Mechanical tests of bilayer tensile strength; type: physicochemical
# Method: (3) Mechanical tests of bilayer tensile strength were carried out on vesicles that contained 0-20 mol % PEG(750)-lipid as a function of MOPC uptake.
# As the bilayer takes up more and more of a water-soluble second component (e.g., bile acid or MOPC) it is expected that it will become weaker and softer (Evans et al., In Bile Acids in Gasteroenterology Basic and Clinical Advances, Hoffman et al. (Eds.) Kluwer Academic Publishers, Doderecht, Boston and London, pp. 59-68 (1994); Needham and Zhelev, Ann. Biomed. Egr. 23:287 (1995); Zhelev, Biophys J. 71:257 (1996)). To test this model, the tensile rupture strength of vesicles containing various amounts of MOPC at stationary equilibrium was measured. […] To obtain the wide range of MOPC bilayer concentrations, several different lipid, PEG-lipid and MOPC solution concentrations were used (0.1 μM MOPC; 1.0 μM MOPC; 20% PEG-lipid and 100 μM MOPC; 4% PEG-lipid and 100 μM MOPC; and 1% PEG-lipid and 100 μM MOPC) as indicated on the plot next to each data point in FIG. 6.
# PEG-lipids were used in some but not all of these vesicle tests. Whether the incorporation of the PEG-lipids (DMPE-(PEG)750) themselves had any effect on the tensile strength of the bilayer vesicles was also investigated. […]
# [2] = Critical micelle concentration by DPH fluorescence; type: physicochemical
# Method: The critical micelle concentration (CMC) of the lysolipid was measured independently by DPH fluorescence following the method in Chattopadhyay and London, Analytical Biochem. 139:408 (1984). Briefly, a series of solutions containing increasing concentrations of MOPC in the range 10^-7 M to 10^-4 M were prepared. Diphenyl hexatriene (DPH), a lipid soluble fluorescent dye, was added to these samples and the intensity of fluorescence was measured by spectrofluorimeter at absorption and emission wavelengths of 358 nm and 430 nm, respectively. The CMC was determined by plotting the fluorescence intensity (in arbitrary units) verses concentration of MOPC solutions, made up by diluting a 100 mM stock solution of MOPC (solubilized initially by Tetrahydrofuran) in water (Chattopadhyay and London, Analytical Biochem. 139:408 (1984)).
# This second trial used SOPC +20 mol % PEG2000 DSPE (0.2 mg/ml, 2×10^-4 M total lipid) for the lipid vesicles and 1 mM PEG2000 DSPE as micellar suspension. […] It was as though the PEG-lipids at this high concentration had formed a gel inside the vesicles.
# [3] = unmodified egg PC membranes, flow rate 300 μm/s; cited from earlier work
# [4] = MOPC uptake into and desorption from single vesicles, micropipet lysolipid exchange; type: physicochemical
# Method: I. du Pont de Nemours and Co.) disc and the chloroform evaporated under nitrogen. Final traces of solvent were removed by placing the disc in an evacuated desiccator for 2 hours (Needham and Nunn, Biophys. J. 58:997 (1990)). The so-formed dried lipid layers were prehydrated with water vapor in a nitrogen carrier gas and then fully hydrated overnight in a sucrose solution at 40° C. […] Both the pure SOPC and SOPC/PEG(750)-lipid vesicles were re-suspended in a glucose solution of 205 mOsm for use in micromanipulation experiments as described below. […] The microscope images were recorded using a COHU CCD camera. […] The pipettes were connected to a manometer system that allowed the applied pressures to be changed and measured to an accuracy of 2 microatmospheres. The micropipet suction pressures were measured by differential transducer (Validyne DP15-24). The measured pressures together with real time were multiplexed on the recorded images with a multiplexer (Model 401, Vista Electronics, La Mesa, Calif., USA). The recorded images were used to measure the change of the vesicle projection length inside the holding pipet during uptake and desorption of lysolecithin, and to calculate the membrane tension. […] The vesicle projection length (Lp) inside the holding pipet is measured and the effects of various solutions on the Lp of the test vesicle are compared. […]
# [5] = TAXOL solubilized in MOPC micelle suspension; type: physicochemical
# Method: For concentrations higher than 50 micromolar, samples were diluted in methanol and the original concentrations were back-calculated.
# These components were mixed together in glass culture tubes, and the mixture was dried and kept under vacuum for approximately 15 hours to evaporate the solvent. MOPC was chosen because it has an acyl chain composition that matches the di-chain phospholipid, stearoyloleoylphosphatidylcholine, that was used to form the lipid bilayers of encapsulating liposomes, as discussed below. […] Surfactants with high CMCs (e.g., in the mM range) readily dissolve lipid membranes, even when the membranes contain cholesterol.
# [6] = Solubility of TAXOL in water and organic solvents; type: physicochemical; settings: hexane or tetradecane
# [7] = cited from earlier work
# [8] = small angle neutron scattering; cited from earlier work
compound,measurement,setting,value
"1,2-Dimyristoyl-sn-Glycero-3-Phosphoethanolamine -N-PEG-750 [PEG(750)-lipid]","tensile rupture strength, effect",[1],"did not reduce the tensile strength significantly, up to 20 mol % PEG-lipid"
"CCCCCCCC/C=C\CCCCCCCC(=O)OC[C@@H](O)COP(=O)([O-])OCC[N+](C)(C)C [MOPC, mono-oleoyl-phosphatidylcholine]",critical micelle concentration (CMC),[2],3 µM
same,rate of MOPC desorption,[3],0.2 s⁻¹
same,"tensile rupture strength, effect",[1],decrease with increasing MOPC concentration
same,aggregation number in membrane,[4]; above the CMC,about 12
same,overall rate of MOPC desorption,"[4]; flow rate 400 μm/s, all PEG(750)-lipid concentrations, 5 vesicles",0.4 ± 0.2 s⁻¹
CC(=O)O[C@H]1C(=O)[C@@]2(C)[C@H]([C@H](OC(=O)c3ccccc3)[C@]3(O)C[C@H](OC(=O)[C@H](O)[C@@H](NC(=O)c4ccccc4)c4ccccc4)C(C)=C1C3(C)C)[C@]1(OC(C)=O)CO[C@@H]1C[C@@H]2O [TAXOL®],stability of TAXOL in micelle suspension,"[5]; 0.2 mM TAXOL, 5 mM MOPC",at least 24 hours
same,TAXOL solubilized in MOPC micelles,[5]; 5 mM MOPC,up to 1 mM
same,increase of solubility limit over aqueous solubility,[5]; 20 mM LPC,about 4000 times
same,solubility limit in aqueous media in presence of LPC,[5]; 20 mM LPC,4 mM
same,moles TAXOL solubilized per mole MOPC micelle,"[5]; MOPC micelle, data not shown",1 mole TAXOL per mole MOPC
same,solubility in alkanes / hexane,[6],not soluble at all in alkanes such as hexane or tetradecane; also recorded: largely insoluble in hexane
same,water solubility of TAXOL,[7],about 1 micromolar
CCCCCC(=O)OCC(COP(=O)([O-])OCC[N+](C)(C)C)OC(=O)CCCCC (stereo not drawn) [dicaproylphosphatidylcholine],micelle aggregation number,[8],19
CCCCCCC(=O)OCC(COP(=O)([O-])OCC[N+](C)(C)C)OC(=O)CCCCCC (stereo not drawn) [diheptanoylphosphatidylcholine],micelle aggregation number,[8],27

# From patent US6296870A, “Liposomes containing active agents” (Duke University, priority 1998, dated 2001)
